The structures appear in SMILES notation. In brackets after ≈: the same amount, converted by molar mass. Several values for one entry are separate records, joined by “and”; a condition that tells them apart may be missing. Equal entries are not always repeated.

What all share (test): ≥ marks a high value that may be exact or a test limit, other limits are often not marked, values filed in µg/mL are converted to µM
In assay [1] the test system is Micrococcus luteus ATCC 10240.
The test system of assay [2] is Escherichia coli BL21AI.
Assay [3] has as its system Staphylococcus aureus ATCC 25923.
Assay [4] has as its system Salmonella enterica subsp. enterica serovar Typhimurium ATCC 14028.
Assay [5] deals with Bacillus subtilis.
For assay [6], the system named is Streptococcus pyogenes ATCC 19615.
The test system of assay [7] is Enterococcus faecalis ATCC 29212.
For assay [8], the system named is Escherichia coli.
The test system of assay [9] is Pseudomonas aeruginosa ATCC 27853.
Assay [10] has as its system Klebsiella pneumoniae ATCC 13883.
Assay [11] relates to Escherichia coli BL21(DE3).
The test system of assay [12] is Bacillus subtilis ATCC 6633.
Assay [13] relates to Klebsiella pneumoniae ATCC 27736.
The subject of assay [14] is Pseudomonas aeruginosa ATCC BAA-427.
Assay [15] concerns Staphylococcus aureus ATCC 33591.
The test system of assay [16] is Staphylococcus epidermidis ATCC 35984.
In assay [17] the test system is Saccharomyces cerevisiae KCTC 7296.
The test system of assay [18] is Trichosporon beigelii KCTC 7707.
Assay [19] relates to Candida albicans TIMM 1768.
The subject of assay [20] is Staphylococcus aureus.
Assay [21] has as its system Escherichia coli 363.
Assay [22] concerns Escherichia coli B.
Assay [23] relates to Pseudomonas aeruginosa.

Consider `CC[C@H](C)[C@H](NC(=O)[C@@H]1CCCN1C(=O)[C@H](CCCN=C(N)N)NC(=O)[C@@H]1CCCN1C(=O)[C@H](Cc1cnc[nH]1)NC(=O)[C@@H]1CCCN1C(=O)[C@@H]1CCCN1C(=O)[C@H](CCCN=C(N)N)NC(=O)[C@@H]1CCCN1C(=O)[C@H](CCC(N)=O)NC(=O)[C@@H]1CCCN1C(=O)[C@@H](NC(=O)[C@H](Cc1ccc(O)cc1)NC(=O)[C@@H](NC(=O)[C@@H]1CCCN1C(=O)[C@H](CCCN=C(N)N)NC(=O)[C@H](CC(N)=O)NC(=O)[C@H](CC(N)=O)NC(=O)CN)C(C)C)[C@@H](C)CC)C(=O)N[C@@H](CCCN=C(N)N)C(=O)N[C@H](C(=O)O)C(C)C` [GNNRPVYIPQPRPPHPRPIRV], for which the figures for the MIC in [1] and in [2] were 0.199 µM (≈ 0.49 µg/mL) and 6.35 µM (≈ 15.6 µg/mL), respectively.

Regarding `CC(C)C[C@H](NC(=O)[C@H](CCCN=C(N)N)NC(=O)CNC(=O)CNC(=O)[C@@H](N)CCCN=C(N)N)C(=O)N[C@@H](Cc1ccc(O)cc1)C(=O)N[C@@H](CCCN=C(N)N)C(=O)N[C@@H](CCCN=C(N)N)C(=O)N[C@@H](CCCN=C(N)N)C(=O)N[C@@H](Cc1ccccc1)C(=O)N[C@H](C(=O)N[C@H](C(=O)NCC(=O)N[C@@H](CCCN=C(N)N)C(N)=O)C(C)C)C(C)C` [RGGRLYRRRFVVGR], the minimum inhibitory concentration (MIC) in assay [3] was determined as 2 µM (≈ 3.49 µg/mL); in [4] it was 8 µM (≈ 14 µg/mL); in assay [5], 8 µM (≈ 14 µg/mL); in [6], 8 µM (≈ 14 µg/mL); in [7], 4 µM (≈ 6.99 µg/mL); in [8] it was 4 µM (≈ 6.99 µg/mL). Further, the MIC in [9] and in [10] was 8 µM (≈ 14 µg/mL) each time.

On to `CC[C@H](C)[C@H](NC(=O)[C@H](CC(C)C)NC(=O)[C@H](Cc1c[nH]c2ccccc12)NC(=O)[C@@H](NC(=O)[C@H](CC(C)C)NC(=O)[C@H](CCCN=C(N)N)NC(=O)[C@@H](N)CCCN=C(N)N)[C@@H](C)CC)C(=O)N[C@@H](CC(C)C)C(=O)N[C@@H](CCCN=C(N)N)C(=O)N[C@@H](CC(C)C)C(=O)N[C@@H](CC(C)C)C(=O)N[C@@H](CCCN=C(N)N)C(N)=O` [RRLIWLILRLLR], for which the minimal inhibitory concentration (MIC) in [4] was 8 µM and > 4 µM and 10 µM; in [11] it was 8 µM (≈ 13 µg/mL); in assay [5], 10 µM and 4 µM and 8 µM; in [6], 4 µM and 8 µM; in assay [7], 4 µM and 8 µM; in assay [9], 8 µM and > 4 µM and 10 µM. Further, the minimum inhibitory concentration (MIC) in assay [10] is 4 µM and 8 µM.

In the case of `CC[C@H](C)[C@H](NC(=O)[C@H](Cc1cnc[nH]1)NC(=O)[C@H](Cc1cnc[nH]1)NC(=O)[C@H](Cc1ccccc1)NC(=O)[C@@H](N)Cc1ccccc1)C(=O)N[C@@H](Cc1ccccc1)C(=O)N[C@@H](CCCN=C(N)N)C(=O)NCC(=O)N[C@H](C(=O)N[C@H](C(=O)N[C@@H](Cc1cnc[nH]1)C(=O)N[C@H](C(=O)NCC(=O)N[C@@H](CCCCN)C(=O)N[C@H](C(=O)N[C@H](C(=O)N[C@@H](Cc1cnc[nH]1)C(=O)N[C@@H](CCCN=C(N)N)C(=O)N[C@@H](CC(C)C)C(=O)N[C@H](C(=O)N[C@H](C(=O)NCC(N)=O)[C@@H](C)O)C(C)C)[C@@H](C)CC)[C@@H](C)O)C(C)C)C(C)C)C(C)C` [FFHHIFRGVVHVGKTIHRLVTG], the MIC is 8 µM (≈ 20.5 µg/mL) in assay [12], 6 µM (≈ 15.3 µg/mL) in assay [13] and 12 µM (≈ 30.7 µg/mL) in assay [14].

For the compound `CC[C@H](C)[C@H](NC(=O)[C@H](CCCN=C(N)N)NC(=O)[C@H](CCCN=C(N)N)NC(=O)[C@@H]1CCCN1C(=O)[C@@H]1CCCN1C(=O)[C@H](CCCCN)NC(=O)[C@@H]1CCCN1C(=O)[C@H](CCCN=C(N)N)NC(=O)[C@@H]1CCCN1C(=O)[C@H](CC(C)C)NC(=O)[C@H](Cc1ccc(O)cc1)NC(=O)[C@@H]1CCCN1C(=O)[C@@H]1CCCN1C(=O)[C@H](CCCCN)NC(=O)[C@H](CC(=O)O)NC(=O)[C@@H](N)C(C)C)C(=O)N[C@@H](Cc1ccc(O)cc1)C(=O)N[C@@H](CC(N)=O)C(=O)N[C@@H](CC(N)=O)C(=O)N[C@@H](CCCN=C(N)N)C(=O)O` [VDKPPYLPRPKPPRRIYNNR], the MIC in assay [1] and in assay [2] was 6.46 µM (≈ 16 µg/mL) each time.

In the case of `CC[C@H](C)[C@H](NC(=O)[C@H](CCCCN)NC(=O)[C@@H](NC(=O)[C@H](Cc1ccccc1)NC(=O)[C@H](C)NC(=O)[C@H](CCCCN)NC(=O)CNC(=O)[C@H](Cc1ccccc1)NC(=O)[C@H](CCCCN)NC(=O)[C@H](CCCCN)NC(=O)[C@H](C)NC(=O)[C@H](CCCCN)NC(=O)[C@H](CCCCN)NC(=O)[C@H](CC(C)C)NC(=O)[C@@H](N)Cc1ccccc1)C(C)C)C(=O)N[C@@H](CC(C)C)C(=O)N[C@@H](CCCCN)C(N)=O` [FLKKAKKFGKAFVKILK], the MIC in assay [3] is 45.4 µM (≈ 90.5 µg/mL); in assay [15], at least 128 µM; in [16], 1.42 µM (≈ 2.83 µg/mL); in assay [9] it was 1 µM (≈ 2 µg/mL).

In the case of `CC[C@H](C)[C@H](NC(=O)[C@H](CCCCN)NC(=O)[C@@H](NC(=O)[C@H](Cc1ccccc1)NC(=O)[C@H](C)NC(=O)[C@H](CCCCN)NC(=O)CNC(=O)[C@H](Cc1ccccc1)NC(=O)[C@H](CCCCN)NC(=O)[C@H](CCCCN)NC(=O)[C@H](C)NC(=O)[C@@H](N)CCCCN)C(C)C)C(N)=O` [KAKKFGKAFVKI], the MIC is over 375 µM in assay [3], at least 375 µM in assay [15], at least 133 µM in assay [16] and 66.3 µM (≈ 90.4 µg/mL) in assay [9].

Consider `CC[C@H](C)[C@H](NC(=O)[C@@H](NC(=O)[C@@H](N)CCCN=C(N)N)[C@@H](C)CC)C(=O)N[C@@H](CC(=O)O)C(=O)N[C@@H](CC(C)C)C(=O)N[C@@H](CC(C)C)C(=O)N[C@@H](Cc1c[nH]c2ccccc12)C(=O)N[C@@H](CCCN=C(N)N)C(=O)N[C@H](C(=O)N[C@@H](CCCN=C(N)N)C(=O)N[C@@H](CCCN=C(N)N)C(=O)N1CCC[C@H]1C(=O)N[C@@H](Cc1c[nH]c2ccccc12)C(=O)N[C@@H](Cc1c[nH]c2ccccc12)C(=O)N1CCC[C@H]1C(=O)N[C@@H](CCCCN)C(=O)N[C@@H](Cc1ccccc1)C(=O)N[C@H](C(=O)N[C@H](C(=O)N[C@H](C(=O)N[C@@H](Cc1c[nH]c2ccccc12)C(=O)N[C@H](C(=O)N[C@@H](CCCN=C(N)N)C(N)=O)C(C)C)C(C)C)[C@@H](C)O)C(C)C)C(C)C` [RIIDLLWRVRRPWWPKFVTVWVR], for which the MIC was 14.1 µM (≈ 43.5 µg/mL) in assay [17], 20 µM (≈ 61.6 µg/mL) in assay [18] and 10 µM (≈ 30.8 µg/mL) in [19].

In the case of `CC[C@H](C)[C@H](NC(=O)[C@@H](NC(=O)[C@@H](N)CCCN=C(N)N)[C@@H](C)CC)C(=O)N[C@@H](CC(=O)O)C(=O)N[C@@H](CC(C)C)C(=O)N[C@@H](CC(C)C)C(=O)N[C@@H](Cc1c[nH]c2ccccc12)C(=O)N[C@@H](CCCN=C(N)N)C(=O)N[C@H](C(=O)N[C@@H](Cc1c[nH]c2ccccc12)C(=O)N[C@@H](CCCN=C(N)N)C(=O)N1CCC[C@H]1C(=O)N[C@@H](CCC(N)=O)C(=O)N[C@@H](CCCCN)C(=O)N1CCC[C@H]1C(=O)N[C@@H](CCCCN)C(=O)N[C@@H](Cc1ccccc1)C(=O)N[C@H](C(=O)N[C@H](C(=O)N[C@H](C(=O)N[C@@H](Cc1c[nH]c2ccccc12)C(=O)N[C@H](C(=O)N[C@@H](CCCN=C(N)N)C(N)=O)C(C)C)C(C)C)[C@@H](C)O)C(C)C)C(C)C` [RIIDLLWRVWRPQKPKFVTVWVR], the minimum inhibitory concentration (MIC) in [17] was determined as 10 µM (≈ 29.9 µg/mL); in assay [18] it was 10 µM (≈ 29.9 µg/mL); in assay [19] it was 20 µM (≈ 59.8 µg/mL).

With `CC[C@H](C)[C@H](NC(=O)[C@H](CCCCN)NC(=O)[C@H](CO)NC(=O)[C@H](Cc1c[nH]c2ccccc12)NC(=O)[C@H](CC(C)C)NC(=O)CN)C(=O)N[C@@H](CCCCN)C(=O)N[C@@H](CCC(=O)O)C(=O)N[C@H](C(=O)NCC(=O)N[C@@H](CCCCN)C(=O)N[C@@H](CCC(=O)O)C(=O)N[C@@H](C)C(=O)N[C@@H](C)C(=O)N[C@@H](CCCCN)C(=O)N[C@@H](C)C(=O)N[C@@H](C)C(=O)N[C@@H](C)C(=O)N[C@@H](CCCCN)C(=O)N[C@@H](C)C(=O)N[C@@H](C)C(=O)NCC(=O)N[C@@H](CCCCN)C(N)=O)C(C)C` [GLWSKIKEVGKEAAKAAAKAAGK], the minimal inhibitory concentration (MIC) was over 100 µM in assay [20], 25 µM (≈ 57.8 µg/mL) in assay [21], at least 50 µM in assay [22] and 100 µM (≈ 231 µg/mL) in [23].

(Values after DBAASP.)
